Test results as given in US9914730B2, “Azaquinazoline inhibitors of Atypical protein Kinase C” (Ignyta, Inc., priority 2012, dated 2018).
pIC50: −log10 of the molar value.

target: T1, full-length human PKCι (Homo sapiens, UniProt P41743); assay: PKCι IC50 IMAP assay, full-length PKCι at 150 μM ATP; assay type: biochemical; details: read-out: IC50 in IMAP assay against full length PKCi at 150 μM ATP
T1 construct: Recombinant, full-length human PKCι expressed in Sf21 insect cells is also commercially available; purchased; host or cells: Sf21 insect cells
T1 sequence (P41743 1-596): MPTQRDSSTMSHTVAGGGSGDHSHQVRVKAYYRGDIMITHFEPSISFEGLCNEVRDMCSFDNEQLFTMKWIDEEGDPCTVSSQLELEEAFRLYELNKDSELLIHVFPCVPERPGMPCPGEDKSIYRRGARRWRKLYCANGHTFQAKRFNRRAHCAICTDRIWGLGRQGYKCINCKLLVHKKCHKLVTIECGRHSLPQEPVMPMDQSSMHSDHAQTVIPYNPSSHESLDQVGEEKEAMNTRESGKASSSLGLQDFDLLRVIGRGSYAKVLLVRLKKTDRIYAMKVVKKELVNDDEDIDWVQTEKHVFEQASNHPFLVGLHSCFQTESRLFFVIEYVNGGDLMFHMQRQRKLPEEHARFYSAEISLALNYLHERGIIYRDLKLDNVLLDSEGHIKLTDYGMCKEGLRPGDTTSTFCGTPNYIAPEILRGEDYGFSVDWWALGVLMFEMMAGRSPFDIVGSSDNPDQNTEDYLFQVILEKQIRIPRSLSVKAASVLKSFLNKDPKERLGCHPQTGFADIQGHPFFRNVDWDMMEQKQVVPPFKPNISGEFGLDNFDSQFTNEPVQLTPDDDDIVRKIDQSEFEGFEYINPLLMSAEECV
Method in brief: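 Recombinant full-length human PKCι (Sf21-expressed, typically 15 pM) phosphorylated 100 nM 5FAM-labelled PKCε pseudosubstrate-derived peptide with 150 μM ATP (5× KM^APP) in 18 mM tris-HCl pH7.5, 9 mM MgCl2, EGTA, DTT, 4% DMSO. After 60 min at room temperature, IMAP binding reagent was added for 2 h and fluorescence polarisation read.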

pIC50, 5.00 to 6.00:
N[C@@H](CNc1nc(-c2ccncc2)nc2c(Sc3ccccc3)nccc12)Cc1ccccc1 [Example 128, (R)-3-Phenyl-N^1-(8-phenylsulfanyl-2-pyridin-4-yl-pyrido[3,4-d]pyrimidin-4-yl)-propane-1,2-diamine]
CS(=O)(=O)CCN1CCN(c2nc(-c3ccnc(NC(=O)C4CC4)c3)nc3cncc(C4CC4)c23)CC1 [Example 665, Cyclopropane-carboxylic acid (4-{5-cyclopropyl-4-[4-(2-methanesulfonyl-ethyl)-piperazin-1-yl]-pyrido[3,4-d]pyrimidin-2-yl}-pyridin-2-yl)-amide]
CS(=O)(=O)C[C@H]1CN(c2nc(-c3ccnc(Nc4ccc(F)cc4)c3)nc3cncc(C4CC4)c23)CCN1 [Example 771, {4-[5-Cyclopropyl-4-((R)-3-methanesulfonyl-methyl-piperazin-1-yl)-pyrido[3,4-d]pyrimidin-2-yl]-pyridin-2-yl}-(4-fluoro-phenyl)-amine]
COc1cncc2nc(-c3ccnc(Nc4c(F)ccc(F)c4F)c3)nc(N3CCN[C@@H](CF)C3)c12 [Example 237, {4-[4-((R)-3-Fluoromethyl-piperazin-1-yl)-5-methoxy-pyrido[3,4-d]pyrimidin-2-yl]-pyridin-2-yl}-(2,3,6-trifluoro-phenyl)-amine]
COc1cccc(Nc2cc(-c3nc(N4CCC(O)CC4)c4c(OC)cncc4n3)ccn2)n1 [Example 469, 1-{5-Methoxy-2-[2-(6-methoxy-pyridin-2-ylamino)-pyridin-4-yl]-pyrido[3,4-d]pyrimidin-4-yl}-piperidin-4-ol]
COc1cncc2nc(-c3ccncc3)nc(N3CCNC(C(=O)NCc4ccccc4)C3)c12 (centres unmarked) [Example 157, 4-(5-Methoxy-2-pyridin-4-yl-pyrido[3,4-d]pyrimidin-4-yl)-piperazine-2-carboxylic acid benzylamide]

pIC50, > 7.00:
c1cc(-c2nc(N3CCNCC3)c3c(C4CC4)cncc3n2)cc(Nc2cnn(C3CCOCC3)c2)n1 [Example 795, [4-(5-Cyclopropyl-4-piperazin-1-yl-pyrido[3,4-d]pyrimidin-2-yl)-pyridin-2-yl]-[1-(tetrahydro-pyran-4-yl)-1H-pyrazol-4-yl]-amine]
COc1cncc2nc(-c3ccnc4[nH]ccc34)nc(N3CCN[C@@H](CO)C3)c12 [Example 1206, {(R)-4-[5-Methoxy-2-(1H-pyrrolo[2,3-b]pyridin-4-yl)-pyrido[3,4-d]pyrimidin-4-yl]-piperazin-2-yl}-methanol]
CC(C)(C)c1cc2c(-c3nc(N4CCNCC4)c4c(C5CC5)cnc(C5CC5)c4n3)ccnc2[nH]1 [Example 2190, 2-(2-tert-Butyl-1H-pyrrolo[2,3-b]pyridin-4-yl)-5,8-dicyclopropyl-4-piperazin-1-yl-pyrido[3,4-d]pyrimidine]
CCc1cncc2nc(-c3ccncc3)nc(NC[C@@H](N)Cc3ccccc3)c12 [Example 137, N-[(2S)-2-amino-3-phenylpropyl]-5-ethyl-2-(pyridin-4-yl)pyrido[3,4-d]pyrimidin-4-amine]
FC(F)(F)c1cc2c(-c3nc(N4CCNCC4)c4c(C5CCC5)cncc4n3)ccnc2[nH]1 [Example 2024, 5-Cyclobutyl-4-piperazin-1-yl-2-(2-trifluoromethyl-1H-pyrrolo[2,3-b]pyridin-4-yl)-pyrido[3,4-d]pyrimidine]
COc1ccc(F)c(Nc2cc(-c3nc(N4CCNCC4)c4c(C5CC5)cncc4n3)ccn2)c1F [Example 566, [4-(5-Cyclopropyl-4-piperazin-1-yl-pyrido[3,4-d]pyrimidin-2-yl)-pyridin-2-yl]-(2,6-difluoro-3-methoxy-phenyl)-amine]
C[C@H](Nc1cc(-c2nc(N3CCNCC3)c3c(C4CC4)cncc3n2)ccn1)c1ccccc1 [Example 587, [4-(5-Cyclopropyl-4-piperazin-1-yl-pyrido[3,4-d]pyrimidin-2-yl)-pyridin-2-yl]-((S)-1-phenyl-ethyl)-amine]
c1ccc(Nc2cc(-c3nc(N4CCNCC4)c4c(C5CC5)cncc4n3)ccn2)nc1 [Example 750, [4-(5-Cyclopropyl-4-piperazin-1-yl-pyrido[3,4-d]pyrimidin-2-yl)-pyridin-2-yl]-pyridin-2-yl-amine]
C[C@@H](Nc1cc(-c2nc(N3CCNCC3)c3c(C4CC4)cncc3n2)ccn1)c1c(F)cccc1F [Example 653, [4-(5-Cyclopropyl-4-piperazin-1-yl-pyrido[3,4-d]pyrimidin-2-yl)-pyridin-2-yl]-[(R)-1-(2,6-difluoro-phenyl)-ethyl]-amine]
COc1cccc(CC(=O)Nc2cc(-c3nc(N[C@@H]4CCNC4)c4ccncc4n3)ccn2)c1 [Example 337, 2-(3-Methoxy-phenyl)-N-{4-[4-((R)-pyrrolidin-3-ylamino)-pyrido[3,4-d]pyrimidin-2-yl]-pyridin-2-yl}-acetamide]
Fc1cc(F)c(F)c(Nc2cc(-c3nc(N4CCNCC4)c4c(C5CC5)cncc4n3)ccn2)n1 [Example 774, [4-(5-Cyclopropyl-4-piperazin-1-yl-pyrido[3,4-d]pyrimidin-2-yl)-pyridin-2-yl]-(3,4,6-trifluoro-pyridin-2-yl)-amine]
CC(C)(C)c1cc2c(-c3nc(N4CCNC(=O)CC4)c4c(C5CC5)cncc4n3)ccnc2[nH]1 [Example 1249, 1-[2-(2-tert-Butyl-1H-pyrrolo[2,3-b]pyridin-4-yl)-5-cyclopropyl-pyrido[3,4-d]pyrimidin-4-yl]-[1,4]diazepan-5-one]

pIC50, 4.40 to 5.00:
c1cc(-c2nc(N3CCN4CCC[C@@H]4C3)c3ccncc3n2)ccn1 [Example 64, 4-{4-[(8aR)-octahydropyrrolo-[1,2-a]piperazin-2-yl]pyrido[3,4-d]-pyrimidin-2-yl}-pyridine]
[4-(5-Cyclopropyl- 4-piperazin-1-yl- pyrido[3,4- d]pyrimidin-2-yl)- pyridin-2-yl]-(4- trifluoromethyl- phenyl)-amine [Example 596]

pIC50, 6.00 to 7.00:
COc1cncc2nc(-c3ccnc(Nc4ccccc4)c3)nc(N3CCC(O)C(O)C3)c12 (single isomer, unassigned) [Example 464, (3S,4R)-1-[5-Methoxy-2-(2-phenylamino-pyridin-4-yl)-pyrido[3,4-d]pyrimidin-4-yl]-piperidine-3,4-diol or (3R,4S)-1-[5-Methoxy-2-(2-phenylamino-pyridin-4-yl)-pyrido[3,4-d]pyrimidin-4-yl]-piperidine-3,4-diol]
N[C@H](CNc1nc(-c2ccncc2)nc2c(-c3ccsc3)nccc12)Cc1ccccc1 [Example 114, N-[(2S)-2-amino-3-phenylpropyl]-2-(pyridin-4-yl)-8-(thiophen-3-yl)pyrido[3,4-d]pyrimidin-4-amine]
NCc1ccc(-c2nccc3c(NC[C@@H](N)Cc4ccccc4)nc(-c4ccncc4)nc23)o1 [Example 121, N-[(2S)-2-amino-3-phenylpropyl]-8-[5-(amino-methyl)-furan-2-yl]-2-(pyridin-4-yl)pyrido[3,4-d]pyrimidin-4-amine]
FC(F)(F)c1ccc(Nc2cc(-c3nc(N4CCNCC4)c4c(C5CC5)cncc4n3)ccn2)cn1 [Example 270, [4-(5-Cyclopropyl-4-piperazin-1-yl-pyrido[3,4-d]pyrimidin-2-yl)-pyridin-2-yl]-(6-trifluoromethyl-pyridin-3-yl)-amine]
CN(C)CCN(C)c1nc(-c2ccnc(Nc3c(F)cccc3F)c2)nc2cncc(C3CC3)c12 [Example 797, N-{5-Cyclopropyl-2-[2-(2,6-difluoro-phenylamino)-pyridin-4-yl]-pyrido[3,4-d]pyrimidin-4-yl}-N,N′,N′-trimethyl-ethane-1,2-diamine]
CN1CCN(c2cccc(Nc3cc(-c4nc(N5CCCC5)c5c(C6CC6)cncc5n4)ccn3)c2)CC1 [Example 760, [4-(5-Cyclopropyl-4-pyrrolidin-1-yl-pyrido[3,4-d]pyrimidin-2-yl)-pyridin-2-yl]-[3-(4-methyl-piperazin-1-yl)-phenyl]-amine]
N[C@H](CNc1nc(-c2ccncc2)nc2c(-c3cncnc3)nccc12)Cc1ccccc1 [Example 108, N-[(2S)-2-amino-3-phenylpropyl]-2-(pyridin-4-yl)-8-(pyrimidin-5-yl)pyrido[3,4-d]pyrimidin-4-amine]
COc1cncc2nc(-c3ccnc(Nc4ccccc4)c3)nc(N3CCN(CCO)CC3)c12 [Example 432, 2-{4-[5-Methoxy-2-(2-phenylamino-pyridin-4-yl)-pyrido[3,4-d]pyrimidin-4-yl]-piperazin-1-yl}-ethanol]
COc1cncc2nc(-c3ccnc(NC(=O)[C@H](C)c4ccccc4)c3)nc(N3CCNCC3)c12 [Example 408, (R)-N-[4-(5-Methoxy-4-piperazin-1-yl-pyrido[3,4-d]pyrimidin-2-yl)-pyridin-2-yl]-2-phenyl-propionamide]
